Laboratory results as given in ChEMBL document CHEMBL1139852, “A distinctive structural twist in the aminoimidazole alkaloids from a calcareous marine sponge: isolation and characterization of leucosolenamines A and B” (J Nat Prod, 2007).

Key:
Assay type in all cases: cell-based; call rule not given here
[1] = Selective cytotoxicity for mouse C38 cells over CFU-GM cells at 7.8 ug/disk; conditions: mc-38
MC-38 [2] = test: Cytotoxicity against mouse C38 cells at 7.8 ug/disk
[3] = Cytotoxicity against mouse CFU-GM cells at 7.8 ug/disk
MC-38 [4] = test: Cytotoxicity against mouse C38 cells at 180 ug/disk
[5] = Cytotoxicity against mouse CFU-GM cells at 180 ug/disk
[6] = Selective cytotoxicity for mouse C38 cells over CFU-GM cells at 180 ug/disk; conditions: mc-38

Row | Structure (SMILES) | inhibition zone (IZ) [1] [mm] | inhibition zone (IZ) (MC-38 [2]) [mm] | inhibition zone (IZ) [3] [mm] | Activity (MC-38 [4]) | Activity [5] | inhibition zone (IZ) [6] [mm] | inhibition zone (IZ) (MC-38 [4]) [mm] | inhibition zone (IZ) [5] [mm]
1 | CO[C@@H](C(=O)N[C@H]1CCCCNC1=O)[C@H](O)[C@@H](O)[C@H](O)/C=C/C(C)C [BENGAMIDE E] | 4.5 | 21 | 16.5 | – | – | – | – | –
2 | Cc1cn([C@H]2C[C@H](O)[C@@H](CO)O2)c(=O)[nH]c1=O [DOXRIBTIMINE] | – | – | – | Not Active | Not Active | 0 | – | –
3 | Cn1c(/N=C2\NC(=N)N=C2Cc2ccc3c(c2)OCO3)c(N)c(=O)n(C)c1=O [LEUCOSOLENAMINE A] | – | – | – | – | – | 10.5 | 10.5 | 0
